Measurements published in patent US20180185414A1, “CALCIUM SALT COMPOSITION AND FILAGGRIN PRODUCTION PROMOTER USING THE SAME” (NISSAN CHEMICAL INDUSTRIES, LTD., priority 2015, published 2018).

Columns and labels:
[1] = tested on: filaggrin production in human skin keratinocytes (NHEK); experiment: Filaggrin production test (B): calcium salt composition, fluorescent immunostaining; assay type: cell-based; details: for Increase rate of brightness: unsupplemented = 100
Description: Then, according to Table 12, the calcium salt stock aqueous dispersed solution was added to the same medium as used in filaggrin production test (A) while pipetting so that a predetermined supplemented concentration calculated in terms of calcium ion would be obtained, and thereby a calcium salt supplemented medium was prepared.
On a culture plate of 24-wells to which the same medium as used in filaggrin production test (A) was added, human skin keratinocytes (manufactured by KURABO […] LTD., NHEK) were inoculated so that the cell density would be 3,800 cells/cm^2, and this was cultured for 3 days (37° C., 5% CO2). Then, this medium was exchanged with the calcium salt supplemented medium prepared as mentioned above and incubated for a day or two (37° C., 5% CO2). These incubated cells were stained as in the above-mentioned filaggrin production test (A), and Lcell and the increase rate of brightness were calculated.

[2] = tested on: filaggrin production in human skin keratinocytes (NHEK); experiment: Filaggrin production test (A): fluorescent immunostaining with Anti-FLG; assay type: cell-based; details: for Increase rate of brightness: overnight, relative to Lcell of Comparative Test Example 2 (no calcium salt added = 100); for Brightness/Cell number (Lcell): incubated overnight
Description: Various calcium salts were dispersed in water so that the concentration calculated in terms of calcium ion would be 0.89 M, this obtained dispersed solution was then sterilized in an autoclave (at 120° C. for 20 minutes), and thereby various calcium salt stock dispersed solutions were prepared.
Then, according to Table 11, each calcium salt stock aqueous dispersed solution was added to a medium (manufactured by KURABO […] LTD., HuMedia-KG2) while pipetting so that that a predetermined supplemented concentration calculated in terms of calcium ion would be obtained, and thereby a calcium salt supplemented medium was prepared.
On a culture plate of 24-wells to which the same medium as used in the preparation of the above-mentioned calcium salt supplemented medium was added, human skin keratinocytes (manufactured by KURABO […] LTD., NHEK) were inoculated so that the cell density would be 3,800 cells/cm^2, and this was cultured for 3 days (37° C., 5% CO2). Then, this medium was exchanged with the calcium salt supplemented medium prepared as mentioned above and incubated for overnight (37° C., 5% CO2).
Whether filaggrin is produced by a calcium salt was examined using fluorescent immunostaining methods by Anti-Filaggrin/FLG, Rabbit-Poly, Alexa Fluor 488 (manufactured by BIS, hereinafter referred to as “Anti-FLG” as well). Moreover, for comparing the staining, DAPI (4′,6-diamidino-2-phenylindole dihydrochloride, manufactured by Wako Pure Chemical Industries, Ltd) was used to stain the nucleus.
That is to say that the above-mentioned incubated cells for overnight were washed with PBS and fixed with 4% paraformaldehyde solution (manufactured by Wako Pure Chemical Industries, Ltd). The fixed cells were permeabilized with 0.1% Triton-X 100, incubated for overnight with Anti-FLG PBS solution (×50) at 4° C., and then stained with a PBS solution of 100 nM DAPI. Note that the cells were washed with PBS after every operation.
For calculating the relative production amount of filaggrin, a fluorescent microscopic image of the above-mentioned stained cells was taken. The brightness of the image was quantified using Photoshop CS3, and this was normalized by dividing the obtained numerical value with cell numbers (Brightness/Cell number; Lcell). Moreover, the increase rate of brightness by adding various calcium salts in comparison with Lcell of the Comparative Test Example 2 in which calcium salt aqueous dispersed solution has not been added to the medium was calculated.

[3] = calcium ion 0.09 mM, cells incubated for 1 day
[4] = calcium ion 0.09 mM, cells incubated for 2 days
[5] = calcium ion 0.89 mM, cells incubated for 1 day
[6] = calcium ion 0.89 mM, cells incubated for 2 days
[7] = supplemented concentration calculated in terms of calcium ion 1.78 mM
[8] = supplemented concentration calculated in terms of calcium ion 0.89 mM

Row | Molecule | Brightness/Cell number (Lcell) [1, 3] | Increase rate of brightness [1, 3] | Brightness/Cell number (Lcell) [1, 4] | Increase rate of brightness [1, 4] | Brightness/Cell number (Lcell) [1, 5] | Increase rate of brightness [1, 5] | Brightness/Cell number (Lcell) [1, 6] | Increase rate of brightness [1, 6] | Increase rate of brightness ([2]; calcium ion 1.78 mM) | Brightness/Cell number (Lcell) [2, 7] | Increase rate of brightness ([2]; calcium ion 0.89 mM) | Brightness/Cell number (Lcell) [2, 8] | Filaggrin production compared to calcium chloride ([2]; human skin keratinocytes, Table 11)
1 | [Ca+2].[Cl-].[Cl-] [Calcium chloride] | 0.20 | 83% | 0.16 | 89% | 0.23 | 96% | 0.20 | 110% | 130% | 0.12 |  |  | 
2 | O=P([O-])(O)O.O=P([O-])(O)O.[Ca+2] [Calcium dihydrogen phosphate] |  |  |  |  |  |  |  |  |  |  | 180% | 0.17 | 
3 | O=P([O-])([O-])OP(=O)([O-])[O-].[Ca+2].[Ca+2] [Calcium pyrophosphate] |  |  |  |  |  |  |  |  | 260% | 0.25 | 290% | 0.28 | relatively high filaggrin production as compared to that of calcium chloride
4 | Calcium glycerophosphate |  |  |  |  |  |  |  |  | 200% | 0.19 |  |  | 
